Active and inactive are the calls of the source. The calls are words filed in the database; no cut-off is given here.

What is called IC50 is the concentration that gives 50% inhibition. In general, Kd refers to the free concentration of one partner at which half of the binding sites on the other are occupied at equilibrium, for simple one-to-one binding.

A short description of series [1]: Antiproliferative activity against human PC3/TxR cells measured after 72 hrs by MTS assay. It counts as functional, cell-based. On the technique in general: Tetrazolium assays rely on reduction of a dye to a coloured formazan, in cell work by metabolically active cells.
For a further series, the system named is M14. The experiment in a line: Antiproliferative activity against human M14 cells measured after 72 hrs by MTS assay. It counts as functional, cell-based. Particulars: M14, 72 h.
Series [2] in a line: Antiproliferative activity against human DU145-TxR cells measured after 72 hrs by MTS assay. It counts as functional, cell-based.
Series [3] is described as follows: Antiproliferative activity against human M14/LCC6MDR1 cells measured after 72 hrs by MTS assay. Format: functional, cell-based.
A further series has as its system DU-145. The experiment in a line: Antiproliferative activity against human DU145 cells measured after 72 hrs by MTS assay. Particulars: DU-145, 72 h. It counts as functional, cell-based.
Another series concerns PC-3. The series can be described thus: Antiproliferative activity against human PC3 cells measured after 72 hrs by MTS assay. Format: functional, cell-based. The following applies: PC-3, 72 h.
Series [4] has as its system A-375. The series can be described thus: Antitumor activity against human A375 cells xenografted in NSG mouse assessed as reduction in tumor volume at 10 mg/kg, ip administered 5 times per week for 14 days relative to control. The arrangement: scale not given: the % may be the effect or the level left. Format: functional. In general terms: Xenograft models place foreign cells or tissue in a host animal.

Series [5] can be described thus: Resistance index, ratio of IC50 for antiproliferative activity against human DU145-TxR cells to IC50 for antiproliferative activity against human DU145 cells. It counts as functional.
Series [6] deals with A-375. The series can be described thus: Antitumor activity against human A375 cells xenografted in NSG mouse assessed as tumor necrosis at 10 to 20 mg/kg, ip administered 5 times per week for 14 days measured post-last dose by H and E staining-based microscopic analysis. Format: functional, organism-based.
Another series concerns MDA-MB-231. The experiment in a line: Antiproliferative activity against human MDA-MB-231 cells measured after 72 hrs by MTS assay. It counts as functional, cell-based. Particulars: MDA-MB-231, 72 h.
The test system of series [7] is A-375. The experiment in a line: Antitumor activity against human A375 cells xenografted in NSG mouse assessed as reduction in tumor volume at 20 mg/kg, ip administered 5 times per week for 14 days relative to control. It counts as functional. Further details: scale not given: the % may be the effect or the level left.
Series [8] can be described thus: Resistance index, ratio of IC50 for antiproliferative activity against human PC3/TxR cells to IC50 for antiproliferative activity against human PC3 cells. It counts as functional.
Series [9] can be described thus: Toxicity in human A375 cells xenografted NSG mouse assessed as decrease in body weight loss at 10 to 20 mg/kg, ip administered 5 times per week for 14 days measured 3 times a week during compound dosing. It counts as organism-based. The following applies: in vivo, 336 h.
The target in series [10] is T1, Tubulin (Sus scrofa) (UniProt P02554+P02550). The experiment in a line: (§1) Inhibition of porcine brain tubulin polymerization measured at 30 secs interval for 65 mins by spectrophotometric method.
T1 sequence (P02550 whole entry, looked up): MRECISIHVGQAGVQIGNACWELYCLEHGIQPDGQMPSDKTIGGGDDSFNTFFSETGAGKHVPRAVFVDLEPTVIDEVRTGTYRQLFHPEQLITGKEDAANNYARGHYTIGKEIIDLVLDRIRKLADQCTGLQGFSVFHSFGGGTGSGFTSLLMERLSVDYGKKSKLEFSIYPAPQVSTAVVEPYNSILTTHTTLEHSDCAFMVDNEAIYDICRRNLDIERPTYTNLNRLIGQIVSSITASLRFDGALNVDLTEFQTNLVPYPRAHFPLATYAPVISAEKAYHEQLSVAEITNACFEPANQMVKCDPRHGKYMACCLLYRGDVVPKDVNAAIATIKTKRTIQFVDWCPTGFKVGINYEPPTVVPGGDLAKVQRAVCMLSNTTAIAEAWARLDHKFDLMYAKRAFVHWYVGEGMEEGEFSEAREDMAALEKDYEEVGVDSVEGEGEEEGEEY
T1 sequence (P02554 whole entry, looked up): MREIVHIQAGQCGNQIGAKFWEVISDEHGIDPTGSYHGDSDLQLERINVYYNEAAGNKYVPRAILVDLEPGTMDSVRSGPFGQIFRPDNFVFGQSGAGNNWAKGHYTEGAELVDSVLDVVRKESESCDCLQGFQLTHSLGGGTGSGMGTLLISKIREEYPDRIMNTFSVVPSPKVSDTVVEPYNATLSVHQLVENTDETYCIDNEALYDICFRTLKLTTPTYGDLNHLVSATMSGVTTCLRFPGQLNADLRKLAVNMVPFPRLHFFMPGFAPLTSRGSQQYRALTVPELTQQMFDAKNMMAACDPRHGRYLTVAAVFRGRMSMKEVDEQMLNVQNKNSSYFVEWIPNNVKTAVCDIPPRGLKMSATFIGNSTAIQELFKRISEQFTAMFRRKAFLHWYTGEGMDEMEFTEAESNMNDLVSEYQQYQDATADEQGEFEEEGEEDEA
The target of series [11] is T2, Tubulin (Sus scrofa, UniProt P02554+P02550). The description is as §1.
The subject of series [12] is A-375. The experiment in a line: Antitumor activity against human A375 cells xenografted in NSG mouse assessed as reduction in tumor size at 10 to 20 mg/kg, ip administered 5 times per week for 14 days by digital caliper method. It counts as functional, organism-based.
The subject of series [13] is A-375. The experiment in a line: Antiproliferative activity against human A375 cells measured after 72 hrs by MTS assay. It counts as functional, cell-based. The following applies: A-375, 72 h.
Series [14] relates to A-375. The series can be described thus: Antitumor activity against human A375 cells xenografted in ip dosed NSG mouse assessed as tumor growth inhibition administered 5 times per week for 14 days. It counts as functional, organism-based.
A further series concerns RPMI-7951. The series can be described thus: Antiproliferative activity against human RPMI7951 cells measured after 72 hrs by MTS assay. Format: functional, cell-based. The following applies: RPMI-7951, 72 h.
The subject of another series is SK-BR-3. The experiment in a line: Antiproliferative activity against human SK-BR-3 cells measured after 72 hrs by MTS assay. The following applies: SK-BR-3, 72 h. It counts as functional, cell-based.
The subject of series [15] is A-375. The experiment in a line: Antitumor activity against human A375 cells xenografted in ip dosed NSG mouse assessed as suppression of tumor growth by measuring decrease in number Ki67 positive cells administered 5 times per week for 14 days measured post-last dose by immunohistochemical analysis. It counts as functional, organism-based.
The nature of series [16]: Resistance index, ratio of IC50 for antiproliferative activity against human M14/LCC6MDR1 cells to IC50 for antiproliferative activity against human M14 cells. It counts as functional.
The target of series [17] is T1, Tubulin (Sus scrofa). The experiment in a line: Inhibition of porcine brain tubulin polymerization at 10 uM measured at 30 secs interval for 65 mins by spectrophotometric method.
Another series has as its system MDA-MB-453. The experiment in a line: Antiproliferative activity against human MDA-MB-453 cells measured after 72 hrs by MTS assay. The following applies: MDA-MB-453, 72 h. It counts as functional, cell-based.
Series [18] has as its system A-375. The series can be described thus: Antitumor activity against human A375 cells xenografted in NSG mouse assessed as reduction in tumor weight at 10 mg/kg, ip administered 5 times per week for 14 days relative to control. Format: functional. Further details: scale not given: the % may be the effect or the level left.
Series [19] has as its system A-375. The experiment in a line: Antitumor activity against human A375 cells xenografted in NSG mouse assessed as increase in cleaved PARP level at 10 to 20 mg/kg, ip administered 5 times per week for 14 days measured post-last dose by immunohistochemical analysis. Format: functional, organism-based.
Series [20] concerns the target T1, Tubulin (Sus scrofa). The experiment in a line: (§2) Binding affinity to porcine brain tubulin polymerization by surface plasmon analysis analysis.
Series [21] addresses T2, Tubulin. The series is described as §2.
The test system of series [22] is A-375. The series can be described thus: Antitumor activity against human A375 cells xenografted in NSG mouse assessed as reduction in tumor weight at 20 mg/kg, ip administered 5 times per week for 14 days relative to control. Format: functional. The arrangement: scale not given: the % may be the effect or the level left.
Series [23] deals with A-375. The series can be described thus: Antitumor activity against human A375 cells xenografted in NSG mouse assessed as disruption of tumor vasculature development by measuring decrease in CD31 staining at 10 to 20 mg/kg, ip administered 5 times per week for 14 days measured post-last dose by immunohistochemical analysis. Format: functional, organism-based.

Take `COc1cc2c(c(OC)c1OC)-c1ccc(OC)c(=O)cc1[C@@H](NC(C)=O)CC2` [COLCHICINE]: the IC50 is 56.3 nM in series [1]; 9.3 nM with M14; over 1000 nM in series [2]; 1400 nM in [3]; 17.3 nM with DU-145; 19 nM in the series on PC-3.
Turning to `CC(=O)O[C@H]1C(=O)[C@@]2(C)[C@H]([C@H](OC(=O)c3ccccc3)[C@]3(O)C[C@H](OC(=O)[C@H](O)[C@@H](NC(=O)c4ccccc4)c4ccccc4)C(C)=C1C3(C)C)[C@]1(OC(C)=O)CO[C@@H]1C[C@@H]2O` [PACLITAXEL], the IC50 in series [1] was 148 nM; in series [2], over 1000 nM; in series [3] it was 200 nM; with PC-3 it was 1.9 nM.
As to `COc1cc(C(=O)c2cccc(-c3ccc(C)c(O)c3)n2)cc(OC)c1OC`, the Activity in the series on A-375 [4] was 58.54%; with A-375 [7] it was 88.5%; in series [9], “Non-Toxic”; with A-375 [15], “Dose-dependent effect”; in the series on A-375 [18], 48.81%; at Tubulin (Sus scrofa) [20], “Dose-dependent effect”. In addition, the Activity in the series on A-375 [22] is listed as 83.33%. The IC50 is 2.5 nM in series [1]; 0.9 to 1.7 nM with M14; 2.8 nM in series [2]; 1.4 nM in [3]; 1.7 nM in the series on MDA-MB-231; 3.7 nM in the series with DU-145. The IC50 was 5000 to 10000 nM against Tubulin [11]; 1.5 nM with A-375 [13]; 1.7 nM with RPMI-7951; 2.8 nM in the series on SK-BR-3; 1.7 nM in the series on PC-3; 1.2 nM in the series with MDA-MB-453. Besides, the “Ratio IC50” value worked out at 0.8 in series [5], 1.5 in series [8] and 1.5 in series [16]. For the same molecule, the outcome with A-375 [6], with A-375 [12], with A-375 [19] and in the series with A-375 [23] was Active. The inhibition result on Tubulin (Sus scrofa) [10] was “Dose-dependent effect”. Moreover, the TGI result with A-375 [14] is “Dose-dependent effect”. Further, the inhibition entry on Tubulin (Sus scrofa) [17] is “Active”. For the same molecule, on Tubulin [21], the Kd came out at 2660 nM.

For the origin of these results see ChEMBL document CHEMBL4376868, “Structure-Activity Relationship Study of Novel 6-Aryl-2-benzoyl-pyridines as Tubulin Polymerization Inhibitors with Potent Antiproliferative Properties” (J Med Chem, 2020).
